These are literature values, as cited in patent publication US20230117236A1 (priority 2021, published 2023).

For the data set, the system named is SARS-CoV-2. The note with it: treatment with 24 ppm of chlorine dioxide; within 10 seconds.

Take `[O][Cl+][O-]` [chlorine dioxide]: the SARS-CoV-2 inactivated result is “more than 99.99%”.
